Data: patent publication US9073906B2, “Sulfamide derivative having an adamantyl group and its pharmaceutically acceptable salt” (KOREA RESEARCH INSTITUTE OF CHEMICAL TECHNOLOGY, priority 2011, dated 2015)

What was measured:
human 11β-HSD1 = human 11β-HSD1 (Homo sapiens (Human), UniProt P28845); assay: HTRF cortisol assay in 11β-HSD1 overexpressing CHO cells; format: cell-based; conditions: human 11β-HSD1 overexpressing CHO cells, 160 nM cortisone, 3 hr at 37° C., read-out: IC50(nM) to 11β-HSD-1
Description: The full-length cDNA molecule coding for human or mouse 11β-HSD1 was inserted into pcDNA (Promega) as mammalian expression vectors and transformed into CHO cells for 5 hr using Lipofectamine plus (Invitrogen) in accordance with manufacturer's manual, followed by stabilization for 48 hr. The CHO cells were incubated with 0.8 μg/ml puromycin (Sigma) once every three days for two weeks to obtain human or mouse 11β-HSD1 overexpressing cells. The cells were grown and frozen, and thawed for enzyme inhibition tests.
The in vitro inhibitory activities of the novel compounds to human 11β-HSD1 were evaluated in accordance with homogenous time-resolved fluorescence (HTRF).
The human or mouse 11β-HSD1 overexpressing cells were subcultured at the number of 2.5×10^4 cells in 96-well plate and stabilized for 24 hr. […] Then, samples of the medium (10 μl) were transferred to 384-well plate and the amounts of cortisol produced were measured using a cortisol kit (Cisbio international) in accordance with manufacturer's instruction. […] Delta F value=(Ratio of compounds−Ratio of negative)/Ratio of negative×100 2. Normalized value=Delta F value of compounds−Delta F value of control 3. % inhibition=Normalized value of compounds/Normalized value of background×100 4.

human 11β-HSD-2 = human 11β-HSD-2 (Homo sapiens (Human), UniProt P80365); assay: HTRF analysis of inhibition of 11β-HSD-2; format: cell-based; conditions: human 11β-HSD-2, HTRF
Sequence of human 11β-HSD-2 (P80365 whole entry): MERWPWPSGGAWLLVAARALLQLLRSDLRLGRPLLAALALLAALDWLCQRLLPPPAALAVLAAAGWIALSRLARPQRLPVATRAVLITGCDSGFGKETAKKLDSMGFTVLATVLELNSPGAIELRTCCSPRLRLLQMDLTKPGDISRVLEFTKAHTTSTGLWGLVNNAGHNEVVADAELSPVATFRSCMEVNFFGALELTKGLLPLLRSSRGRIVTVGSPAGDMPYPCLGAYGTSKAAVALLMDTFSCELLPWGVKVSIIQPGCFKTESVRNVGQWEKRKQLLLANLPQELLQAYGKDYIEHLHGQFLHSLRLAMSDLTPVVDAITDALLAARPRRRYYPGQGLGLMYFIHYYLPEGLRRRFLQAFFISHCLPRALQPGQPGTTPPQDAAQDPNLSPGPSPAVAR

Sequence of human 11β-HSD1 (P28845 whole entry): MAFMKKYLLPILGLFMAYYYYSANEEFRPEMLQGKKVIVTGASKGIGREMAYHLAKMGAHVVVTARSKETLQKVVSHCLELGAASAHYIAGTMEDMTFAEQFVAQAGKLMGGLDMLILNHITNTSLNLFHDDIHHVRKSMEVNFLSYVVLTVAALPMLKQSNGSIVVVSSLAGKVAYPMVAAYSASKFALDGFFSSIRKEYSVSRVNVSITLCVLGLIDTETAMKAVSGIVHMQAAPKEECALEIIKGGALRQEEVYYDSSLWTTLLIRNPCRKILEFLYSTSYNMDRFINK

SMILES | IC50 (human 11β-HSD1) | IC50 (human 11β-HSD-2)
O=C(CN1CCCN(c2ccccc2)S1(=O)=O)NC1C2CC3CC(C2)CC1C3 (centres unmarked) [Compound 2, N-(adamantan-2-yl)-(1,1-dioxido-6-phenyl-1,2,6-thiadiazinan-2-yl)acetamide] | 12 nM | > 10000 nM
CC(C)(C)OC(=O)N1CCCN(CC(=O)NC2C3CC4CC(C3)CC2C4)S1(=O)=O (centres unmarked) [Compound 3, tert-butyl 6-(2-(adamantan-2-ylamino)-2-oxoethyl)-1,2,6-thiadiazinan-2-carboxylate 1,1-dioxide] | 363 nM | > 10000 nM
O=C(CN1CCCN(Cc2ccccc2)S1(=O)=O)NC1C2CC3CC(C2)CC1C3 (centres unmarked) [Compound 5, N-(adamantan-2-yl)-2-(6-benzyl-1,1-dioxido-1,2,6-thiadiazinan-2-yl)acetamide] | 360 nM | > 10000 nM
O=C(CN1CCCN(Cc2ccccc2F)S1(=O)=O)NC1C2CC3CC(C2)CC1C3 (centres unmarked) [Compound 14, N-(adamantan-2-yl)-2-(6-(2-fluorobenzyl)-1,1-dioxido-1,2,6-thiadiazinan-2-yl)acetamide] | 1660 nM | > 10000 nM
Cc1ccc(N2CCCN(CC(=O)NC3C4CC5CC(C4)CC3C5)S2(=O)=O)cc1 (centres unmarked) [Compound 24, N-(adamantan-2-yl)-2-(1,1-dioxido-6-(p-tolyl)-1,2,6-thiadiazinan-2-yl)acetamide] | 3370 nM | > 10000 nM
NC(=O)C12CC3CC(C1)C(NC(=O)CN1CCCN(c4ccc(F)cc4)S1(=O)=O)C(C3)C2 (centres unmarked) [Compound 44, 4-(2-(6-(4-fluorophenyl)-1,1-dioxido-1,2,6-thiadiazinan-2-yl)acetamido)adamantan-1-carboxamide] | 79 nM | > 10000 nM
NC(=O)C12CC3CC(C1)C(NC(=O)CN1CCCN(c4ccccc4F)S1(=O)=O)C(C3)C2 (centres unmarked) [Compound 59, 4-(2-(6-(2-fluorophenyl)-1,1-dioxido-1,2,6-thiadiazinan-2-yl)-acetamido)adamantan-1-carboxamide] | 14 nM | > 10000 nM
NC(=O)C12CC3CC(C1)C(NC(=O)CN1CCCN(c4ccccc4)S1(=O)=O)C(C3)C2 (centres unmarked) [Compound 60, 4-(2-(1,1-dioxido-6-phenyl-1,2,6-thiadiazinan-2-yl)acetamido)adamantan-1-carboxamide] | 17 nM | > 10000 nM
NC(=O)C12CC3CC(C1)C(NC(=O)CN1CCCN(c4cccc(F)c4)S1(=O)=O)C(C3)C2 (centres unmarked) [Compound 69, 4-(2-(6-(3-fluorophenyl)-1,1-dioxido-1,2,6-thiadiazinan-2-yl)acetamido)adamantan-1-carboxamide] | 3 nM | > 10000 nM
NC(=O)C12CC3CC(C1)C(NC(=O)CN1CCCN(c4c(Cl)cc(Cl)cc4Cl)S1(=O)=O)C(C3)C2 (centres unmarked) [Compound 88, 4-(2-(1,1-dioxido-6-(2,4,6-trichlorophenyl)-1,2,6-thiadiazinan-2-yl)acetamido)adamantan-1-carboxamide] | 0.2 nM | > 10000 nM
NC(=O)C12CC3CC(C1)C(NC(=O)CN1CCCN(c4c(F)cc(F)cc4F)S1(=O)=O)C(C3)C2 (centres unmarked) [Compound 89, 4-(2-(1,1-dioxido-6-(2,4,6-trifluorophenyl)-1,2,6-thiadiazinan-2-yl)acetamido)adamantan-1-carboxamide] | 20 nM | > 10000 nM
NC(=O)C12CC3CC(C1)C(NC(=O)CN1CCCCN(c4c(Cl)cc(Cl)cc4Cl)S1(=O)=O)C(C3)C2 (centres unmarked) [Compound 122, 4-(2-(1,1-dioxido-7-(2,4,6-trichlorophenyl)-1,2,7-thiadiazepane-2-yl)acetamido) adamantan-1-carboxamide] | 0.4 nM | > 10000 nM
CN(CC(=O)NC1C2CC3CC1CC(C(N)=O)(C3)C2)S(=O)(=O)N(C)c1c(Cl)cc(Cl)cc1Cl (centres unmarked) [Compound 123, 4-(2-(methyl(N-methyl-N-(2,4,6-trichlorophenyl)sulfa-moyl)amino)acetamido) adamantan-1-carboxamide] | 0.8 nM | > 10000 nM
NC(=O)C12CC3CC(C1)C(NC(=O)CN1CCN(c4c(Cl)cc(Cl)cc4Cl)S1(=O)=O)C(C3)C2 (centres unmarked) [Compound 124, 4-(2-(1,1-dioxido-5-(2,4,6-trichlorophenyl)-1,2,5-thiadiazolidin-2-yl)acetamido) adamantan-1-carboxamide] | 187 nM | > 10000 nM
CC1CCN(c2c(Cl)cc(Cl)cc2Cl)S(=O)(=O)N1CC(=O)NC1C2CC3CC1CC(C(N)=O)(C3)C2 (centres unmarked) [Compound 128, 4-(2-(3-methyl-1,1-dioxido-6-(2,4,6-trichlorophenyl)-1,2,6-thiadiazinan-2-yl)acetamido) adamantan-1-carboxamide] | 0.1 nM | > 10000 nM
CC1CN(CC(=O)NC2C3CC4CC2CC(C(N)=O)(C4)C3)S(=O)(=O)N(c2c(Cl)cc(Cl)cc2Cl)C1 (centres unmarked) [Compound 156, 4-(2-(4-methyl-1,1-dioxido-6-(2,4,6-trichlorophenyl)-1,2,6-thiadiazinan-2-yl)acetamido)adamantan-1-carboxamide] | 1 nM | > 10000 nM
NC(=O)[C@]12CC3CC(C1)[C@@H](NC(=O)CN1CC(F)(F)CN(c4c(Cl)cc(Cl)cc4Cl)S1(=O)=O)C(C3)C2 [Compound 172, 4-(2-(4,4-difluoro-1,1-dioxido-6-(2,4,6-trichlorophenyl)-1,2,6-thiadiazinan-2-yl)acetamido)adamantan-1-carboxamide (E form)] | – | > 10000 nM
C=C1CN(CC(=O)NC2C3CC4CC2CC(C(N)=O)(C4)C3)S(=O)(=O)N(c2c(Cl)cc(Cl)cc2Cl)C1 (centres unmarked) [Compound 175, 4-(2-(4-methylene-1,1-dioxido-6-(2,4,6-trichlorophenyl)-1,2,6-thiadiazinan-2-yl)acetamido)adamantan-1-carboxamide] | 14 nM | > 10000 nM
NC(=O)C12CC3CC(C1)C(NC(=O)CN1CC4(CC4)CN(c4c(Cl)cc(Cl)cc4Cl)S1(=O)=O)C(C3)C2 (centres unmarked) [Compound 176, 4-(2-(6,6-dioxido-7-(2,4,6-trichlorophenyl)-6-thia-5,7-diazaspiro[2,5]octane-5-yl)acetamido)adamantan-1-carboxamide] | 5 nM | > 10000 nM
CC1(C)CN(CC(=O)NC2C3CC4CC2CC(C(N)=O)(C4)C3)S(=O)(=O)N(c2c(Cl)cc(Cl)cc2Cl)C1 (centres unmarked) [Compound 177, 4-(2-(4,4-dimethyl-1,1-dioxido-6-(2,4,6-trichlorophenyl)-1,2,6-thiadiazinan-2-yl)acetamido)adamantan-1-carboxamide] | 5 nM | > 10000 nM
CC1CN(CC(=O)NC2C3CC4CC2CC(C(N)=O)(C4)C3)S(=O)(=O)N(c2c(Cl)cc(C(F)(F)F)cc2Cl)C1 (centres unmarked) [Compound 183, (E) 4-(2-(6-(2,6-dichloro-4-(trifluoromethyl)phenyl)-4-methyl-1,1-dioxido-1,2,6-thiadiazinan-2-yl)acetamido)adamantan-1-carboxamide] | 4.8 nM | > 10000 nM
C[C@H]1CN(CC(=O)NC2C3CC4CC2CC(C(N)=O)(C4)C3)S(=O)(=O)N(c2c(Cl)cc(C(F)(F)F)cc2Cl)C1 (stereo partly drawn) [Compound 195, 4-(2-((S)-6-(2,6-dichloro-4-(trifluoromethyl)phen-yl)-4-methyl-1,1-dioxido-1,2,6-thiadiazinan-2-yl)acetamido)adamantan-1-carboxamide] | – | > 10000 nM
C[C@@H]1CN(CC(=O)NC2C3CC4CC2CC(C(N)=O)(C4)C3)S(=O)(=O)N(c2c(Cl)cc(C(F)(F)F)cc2Cl)C1 (stereo partly drawn) [Compound 196, 4-(2-((R)-6-(2,6-dichloro-4-(trifluoromethyl)phen-yl)-4-methyl-1,1-dioxido-1,2,6-thiadiazinan-2-yl)acetamido)adamantan-1-carboxamide] | 1.3 nM | > 10000 nM
